# Measurements reported in US9216178B2, “Dry blend formulation of tetrahydrobiopterin” (BioMarin Pharmaceutical Inc., priority 2011, dated 2015).
# Structures can show the parent of a compound that is named as a salt.
# Assays:
# [1] = Stability of BH4 dihydrochloride dry blend powder / sachet formulations; assay type: physicochemical; settings: Initial time point
# Protocol: Stability under different storage conditions were assessed and the potency of the active BH4 dihydrochloride is presented.
# Certain embodiments of the sachet dosage forms of the present disclosure are illustrated in Table 18, with a comparison of the stability of different BH4 or BH4-related compounds packaged in foil pouches.
# [2] = room temperature, aqueous solutions; cited from earlier work
# [3] = children treated for 4, 8, and 12 weeks; cited from earlier work
# [4] = children, after 6 months of treatment; cited from earlier work
# physchem = assay type: physicochemical; settings: water
# Excerpt: However, despite the commonality of wet granulation methods, it is not ideal for all blends. Specifically, BH4 dihydrochloride is moisture sensitive and will rapidly degrade in the presence of water. Furthermore, BH4 dihydrochloride is pH sensitive and commonly degrades in the presence of reducing sugars, flavoring agents, flavor enhancers, and aqueous solutions and thus wet blending of BH4 dihydrochloride with excipients can lead to degradation of the active ingredient. […] Accordingly, the dry blend method of producing a stable BH4 dihydrochloride powder sachet dosage is ideal.
# [5] = Clinical evaluation of BH4 capsules: drug levels in cerebrospinal fluid; assay type: in vivo; settings: doses up to 40 mg/kg/day as a single dose; expected
# Protocol: The clinical evaluation comprises two clinical studies.
# A first study evaluates the relative bioavailability of BH4 dihydrochloride administered as a capsule in fasted conditions and after a meal in healthy subjects. Ascending doses of BH4 dihydrochloride up to 40 mg/kg/day are evaluated and drug levels in cerebrospinal fluid (CSF) are measured. […] Measurement of BH4 levels in CSF is expected to be indicative of BH4 availability in brain tissues.
smiles,measurement,setting,value
C[C@H](O)[C@H](O)[C@H]1CNc2[nH]c(N)nc(=O)c2N1.Cl.Cl [100 μg/mL reference API],Degradation/impurity: BH2 (Dihydrobiopterin),[1],0.04 area %
same,Degradation/impurity: BH4,[1],0.05 area %
same,Degradation/impurity: R-Tetrahydrobiolumazine,[1],0.05 area %
same,Degradation/impurity: S-BH4,[1],0.03 area %
same,Potency (%),[1],100.6%
same,Total Impurities (%),[1],0.17%
"C[C@H](O)[C@H](O)[C@H]1CNc2nc(N)[nH]c(=O)c2N1 [BH4, (6R)-L-erythro-5,6,7,8-tetrahydrobiopterin]",shelf-life,[2],less than 8 hours
same,total scores on the Parental Satisfaction Survey (PSS),[3],significant increases
same,social interaction scores,[4],significant improvement
"C[C@H](O)[C@H](O)[C@H]1CNc2nc(N)[nH]c(=O)c2N1 [BH4 dihydrochloride, (6R)-L-erythro-5,6,7,8-tetrahydrobiopterin dihydrochloride]",solubility,physchem,> 100 mg/mL
same,peak levels of BH4 in CSF,[5],higher peak levels
